# Where two headings read alike, the source gives them in different places.
# Experiments:
# [1] = molecular target: human DGKζ (Homo sapiens (Human), UniProt Q13574); assay: DGKζ assay (detergent/lipid micelle substrate); format: biochemical
# How it was run: (§1)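 Enzymes were baculovirus/Sf9 full-length human DGKα or DGKζ with His tag. The substrate was PS/DAG in octyl glucoside micelles, in MOPS pH 7.5 buffer with NaCl, MgCl2, CaCl2 and DTT.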
# [2] = molecular target: human DGKα (Homo sapiens (Human), UniProt P23743); assay: biochemical; settings: detergent/lipid micelle substrate; read-out: DGKα IC50
# Sequence of human DGKα (P23743 other isoform, or with tags, fused parts or gaps): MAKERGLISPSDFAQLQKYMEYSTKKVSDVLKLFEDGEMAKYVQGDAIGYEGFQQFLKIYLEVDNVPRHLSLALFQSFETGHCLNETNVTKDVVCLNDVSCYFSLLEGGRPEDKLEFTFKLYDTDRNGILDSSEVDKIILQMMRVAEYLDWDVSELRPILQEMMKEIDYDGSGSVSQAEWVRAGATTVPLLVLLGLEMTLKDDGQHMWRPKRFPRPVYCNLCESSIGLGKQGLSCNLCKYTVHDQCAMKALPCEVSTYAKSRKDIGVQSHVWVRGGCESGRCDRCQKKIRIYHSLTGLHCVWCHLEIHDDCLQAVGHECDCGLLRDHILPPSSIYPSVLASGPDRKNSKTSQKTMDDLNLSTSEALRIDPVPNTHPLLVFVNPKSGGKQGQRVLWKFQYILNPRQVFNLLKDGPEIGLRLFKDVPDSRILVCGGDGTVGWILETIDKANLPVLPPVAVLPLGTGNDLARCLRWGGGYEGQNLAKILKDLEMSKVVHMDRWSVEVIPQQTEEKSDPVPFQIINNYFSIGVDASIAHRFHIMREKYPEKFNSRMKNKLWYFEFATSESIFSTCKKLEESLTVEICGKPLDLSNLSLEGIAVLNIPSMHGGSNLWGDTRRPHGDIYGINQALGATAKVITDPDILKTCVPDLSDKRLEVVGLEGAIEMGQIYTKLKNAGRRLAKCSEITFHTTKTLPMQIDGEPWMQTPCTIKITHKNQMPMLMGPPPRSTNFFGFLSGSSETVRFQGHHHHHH
# How it was run: as §1
# [3] = tested on: pre-activated CD4 T cells and Raji cells; assay: Raji CD4 T Cell IL2 Assay; format: cell-based
# [4] = detergent/lipid micelle substrate, read-out: DGKζ IC50
# Sequence of human DGKζ (Q13574 other isoform, or with tags, fused parts or gaps): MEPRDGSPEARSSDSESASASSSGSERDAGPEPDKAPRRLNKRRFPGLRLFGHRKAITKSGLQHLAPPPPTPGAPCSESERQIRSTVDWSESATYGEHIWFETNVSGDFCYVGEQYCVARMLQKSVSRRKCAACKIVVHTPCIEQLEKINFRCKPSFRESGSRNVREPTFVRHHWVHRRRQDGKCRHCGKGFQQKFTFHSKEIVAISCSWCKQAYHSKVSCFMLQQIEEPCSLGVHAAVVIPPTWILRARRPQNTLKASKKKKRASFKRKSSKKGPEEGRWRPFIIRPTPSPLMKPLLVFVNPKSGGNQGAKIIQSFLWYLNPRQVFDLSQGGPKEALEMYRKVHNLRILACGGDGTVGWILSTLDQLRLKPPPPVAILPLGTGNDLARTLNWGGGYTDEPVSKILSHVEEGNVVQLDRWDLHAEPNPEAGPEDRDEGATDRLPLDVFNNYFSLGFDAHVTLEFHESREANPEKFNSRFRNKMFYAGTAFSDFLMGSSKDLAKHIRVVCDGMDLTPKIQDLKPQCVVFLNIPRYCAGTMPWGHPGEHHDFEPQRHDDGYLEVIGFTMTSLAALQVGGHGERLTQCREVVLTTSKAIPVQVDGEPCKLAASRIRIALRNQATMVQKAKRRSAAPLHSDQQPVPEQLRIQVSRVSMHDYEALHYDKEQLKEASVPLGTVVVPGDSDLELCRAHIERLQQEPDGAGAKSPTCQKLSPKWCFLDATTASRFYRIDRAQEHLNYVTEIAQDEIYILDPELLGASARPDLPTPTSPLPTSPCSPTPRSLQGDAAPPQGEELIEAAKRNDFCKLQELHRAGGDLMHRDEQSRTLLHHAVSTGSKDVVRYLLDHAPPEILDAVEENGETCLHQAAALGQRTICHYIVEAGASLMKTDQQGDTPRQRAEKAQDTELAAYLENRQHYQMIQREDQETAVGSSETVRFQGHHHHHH
Structure (SMILES),"IC50 [1, 4] [nM]",IC50 [2] [nM],"IC50 ([3]; Homo sapiens, Raji) [nM]","IC50 ([1]; DGKζ IC50, detergent/lipid micelle substrate) [nM]",IC50 [3] [nM]
"Cn1c(=O)c(C#N)c(N2CCN(Cc3cc(Cl)cc(Cl)c3O)CC2)c2nc(Cl)ccc21 [Example 307, 6-chloro-4-{4-[(3,5-dichloro-2-hydroxyphenyl)methyl]piperazin-1-yl}-1-methyl-2-oxo-1,2-dihydro-1,5-naphthyridine-3-carbonitrile]",> 81000,1800,210,,
"Cn1c(=O)c(C#N)c(N2CCN(Cc3cc(Cl)ccc3O)CC2)c2nc(Cl)ccc21 [Example 370, 6-chloro-4-{4-[(5-chloro-2-hydroxyphenyl)methyl]piperazin-1-yl}-1-methyl-2-oxo-1,2-dihydro-1,5-naphthyridine-3-carbonitrile]",> 240000,170,> 100000,,
"Cc1ccc(CN2CCN(c3c(C#N)c(=O)n(C)c4ccc(Cl)nc34)CC2)cc1F [Example 289, 6-chloro-4-{4-[(3-fluoro-4-methylphenyl)methyl]piperazin-1-yl}-1-methyl-2-oxo-1,2-dihydro-1,5-naphthyridine-3-carbonitrile]",> 81000,250,110,,
"Cn1c(=O)c(C#N)c(N2CCN(Cc3ccccc3O)CC2)c2nc(Cl)ccc21 [Example 198, 6-chloro-4-(4-(2-hydroxybenzyl)piperazin-1-yl)-1-methyl-2-oxo-1,2-dihydro-1,5-naphthyridine-3-carbonitrile]",150000,74,500,,
"Cn1c(=O)c([N+](=O)[O-])c(N2CCN(C(c3ccc(F)cc3)c3ccc(F)cc3O)CC2)c2nc(C#N)ccc21 (stereo not drawn) [Example 122, 8-(4-((4-fluoro-2-hydroxyphenyl)(4-fluorophenyl)methyl)piperazin-1-yl)-5-methyl-7-nitro-6-oxo-5,6-dihydro-1,5-naphthyridine-2-carbonitrile]",720,1000,11,,
"Cn1c(=O)c(C#N)c(N2CCN(Cc3cc(F)cc(F)c3)CC2)c2nc(Cl)ccc21 [Example 291, 6-chloro-4-{4-[(3,5-difluorophenyl)methyl]piperazin-1-yl}-1-methyl-2-oxo-1,2-dihydro-1,5-naphthyridine-3-carbonitrile]",> 81000,330,110,,
"Cn1c(=O)c(C#N)c(N2CCN(Cc3ccccc3NC(=O)OC(C)(C)C)CC2)c2nc(Br)ccc21 [Example 284, tert-butyl N-(2-{[4-(6-bromo-3-cyano-1-methyl-2-oxo-1,2-dihydro-1,5-naphthyridin-4-yl)piperazin-1-yl]methyl}phenyl)carbamate]",> 240000,1000,98,,
"Cc1cc(F)cc(CN2CCN(c3c(C#N)c(=O)n(C)c4ccc(Cl)nc34)CC2)c1 [Example 290, 6-chloro-4-{4-[(3-fluoro-5-methylphenyl)methyl]piperazin-1-yl}-1-methyl-2-oxo-1,2-dihydro-1,5-naphthyridine-3-carbonitrile]",> 240000,2200,110,,
"COc1cccc(CN2CCN(c3c(C#N)c(=O)n(C)c4ccc(C)nc34)CC2)c1O [Example 352, 4-{4-[(2-hydroxy-3-methoxyphenyl)methyl]piperazin-1-yl}-1,6-dimethyl-2-oxo-1,2-dihydro-1,5-naphthyridine-3-carbonitrile]",> 81000,700,1600,,
"Cn1c(=O)c(C#N)c(N2CCN(Cc3cccc4c3NCC4)CC2)c2nc(Br)ccc21 [Example 299, 6-bromo-4-{4-[(2,3-dihydro-1H-indol-7-yl)methyl]piperazin-1-yl}-1-methyl-2-oxo-1,2-dihydro-1,5-naphthyridine-3-carbonitrile]",> 240000,570,160,,
"Cn1c(=O)c(C#N)c(N2CCN(Cc3cc(OC(F)(F)F)ccc3O)CC2)c2nc(Br)ccc21 [Example 270, 6-bromo-4-(4-{[2-hydroxy-5-(trifluoromethoxy)phenyl]methyl}piperazin-1-yl)-1-methyl-2-oxo-1,2-dihydro-1,5-naphthyridine-3-carbonitrile]",> 240000,190,59,,
"Cn1c(=O)c(C#N)c(N2CCN(Cc3cc(Br)ccc3O)CC2)c2nc(Br)ccc21 [Example 282, 6-bromo-4-{4-[(5-bromo-2-hydroxyphenyl)methyl]piperazin-1-yl}-1-methyl-2-oxo-1,2-dihydro-1,5-naphthyridine-3-carbonitrile]",> 240000,220,94,,
"Cn1c(=O)c([N+](=O)[O-])c(N2CCN(C(c3ccc(F)cc3)c3cccc(F)c3O)CC2)c2nc(Br)ccc21 (single isomer, unassigned) [Example 76, 6-bromo-4-(4-((3-fluoro-2-hydroxyphenyl)(4-fluorophenyl)methyl)piperazin-1-yl)-1-methyl-3-nitro-1,5-naphthyridin-2(1H)-one]",,5500,,2500,67
"Cn1c(=O)c(C#N)c(N2CCN(Cc3ccccc3O)CC2)c2nc(Br)ccc21 [Example 2, 6-Bromo-4-(4-(2-hydroxybenzyl)piperazin-1-yl)-1-methyl-2-oxo-1,2-dihydro-1,5-naphthyridine-3-carbonitrile]",> 240000,49,200,,
"COc1ccccc1C(c1ccc(F)cc1)N1CCN(c2c(C#N)c(=O)n(CC3CC3)c3ccc(Br)nc23)CC1 (single isomer, unassigned) [Example 159, 6-bromo-1-(cyclopropylmethyl)-4-(4-((4-fluorophenyl)(2-methoxyphenyl)methyl)piperazin-1-yl)-2-oxo-1,2-dihydro-1,5-naphthyridine-3-carbonitrile]",> 240000,120000,2000,,
"Cc1cccc(OCc2cncc(C#N)c2)c1C(c1ccc(F)cc1)N1CCN(c2c([N+](=O)[O-])c(=O)n(C)c3ccc(Br)nc23)CC1 (single isomer, unassigned) [Example 89, 5-((2-((4-(6-bromo-1-methyl-3-nitro-2-oxo-1,2-dihydro-1,5-naphthyridin-4-yl)piperazin-1-yl)(4-fluorophenyl)methyl)-3-methylphenoxy)methyl)nicotinonitrile]",> 240000,41000,,,2800
"COCCOCCCn1c(=O)c([N+](=O)[O-])c(N2CCN(C(c3ccccc3)c3ccccc3)CC2)c2ncccc21 [Example 189, 4-(4-benzhydrylpiperazin-1-yl)-1-(3-(2-methoxyethoxy)propyl)-3-nitro-1,5-naphthyridin-2(1H)-one]",> 240000,130000,7300,,
"Cn1c(=O)c(C#N)c(N2CCN(Cc3ccc(OC(F)(F)F)cc3O)CC2)c2nc(C#N)ccc21 [Example 265, 8-(4-{[2-hydroxy-4-(trifluoromethoxy)phenyl]methyl}piperazin-1-yl)-5-methyl-6-oxo-5,6-dihydro-1,5-naphthyridine-2,7-dicarbonitrile]",36000,34,39,,
"Cn1c(=O)c(C#N)c(N2CCN(Cc3cccc4nc[nH]c34)CC2)c2nc(Cl)ccc21 [Example 359, 4-{4-[(1H-1,3-benzodiazol-7-yl)methyl]piperazin-1-yl}-6-chloro-1-methyl-2-oxo-1,2-dihydro-1,5-naphthyridine-3-carbonitrile]",> 240000,19000,8000,,
"CN(C)C(=O)c1ccc2c(n1)c(N1CCN(C(c3ccc(F)cc3)c3ccc(F)cc3)CC1)c(C#N)c(=O)n2C [Example 231, 8-(4-(bis(4-fluorophenyl)methyl)piperazin-1-yl)-7-cyano-N,N,5-trimethyl-6-oxo-5,6-dihydro-1,5-naphthyridine-2-carboxamide]",> 240000,170000,3000,,
"C#CCOc1ccccc1C(c1ccc(F)cc1)N1CCN(c2c([N+](=O)[O-])c(=O)n(C)c3ccc(C#N)nc23)CC1 (single isomer, unassigned) [Example 101, 8-(4-((4-fluorophenyl)(2-(prop-2-yn-1-yloxy)phenyl)methyl)piperazin-1-yl)-5-methyl-7-nitro-6-oxo-5,6-dihydro-1,5-naphthyridine-2-carbonitrile]",27000,15000,190,,
"Cn1c(=O)c(C#N)c(N2CCN(Cc3ccc(Br)cc3O)CC2)c2nc(Cl)ccc21 [Example 276, 4-{4-[(4-bromo-2-hydroxyphenyl)methyl]piperazin-1-yl}-6-chloro-1-methyl-2-oxo-1,2-dihydro-1,5-naphthyridine-3-carbonitrile]",> 240000,12,79,,
"COCCn1c(=O)c([N+](=O)[O-])c(N2CCN(C(C)c3ccc(F)cc3)CC2)c2nc(C#N)ccc21 (single isomer, unassigned) [Example 149, 8-(4-(1-(4-fluorophenyl)ethyl)piperazin-1-yl)-5-(2-methoxyethyl)-7-nitro-6-oxo-5,6-dihydro-1,5-naphthyridine-2-carbonitrile]",86000,47000,,,64
"Cn1c(=O)c(C#N)c(N2CCN(Cc3ccccc3NC(=O)c3ccccc3)CC2)c2nc(Br)ccc21 [Example 213, N-(2-((4-(6-bromo-3-cyano-1-methyl-2-oxo-1,2-dihydro-1,5-naphthyridin-4-yl)piperazin-1-yl)methyl)phenyl)benzamide]",> 240000,3100,710,,
"C=CCOc1cc(F)cc2c1C(N1CCN(c3c(C#N)c(=O)n(C)c4ccc(Cl)nc34)CC1)CC2 (stereo not drawn) [Example 200, 4-(4-(7-(allyloxy)-5-fluoro-2,3-dihydro-1H-inden-1-yl)piperazin-1-yl)-6-chloro-1-methyl-2-oxo-1,2-dihydro-1,5-naphthyridine-3-carbonitrile]",> 240000,24000,1600,,

# Reference: patent publication US11866430B2, “Naphthyridinone compounds useful as T cell activators” (priority 2018, dated 2024)
